# US20250122181A1, “BENZIMIDAZOLES AS MODULATORS OF IL-17” (Janssen Pharmaceutica NV, priority 2021, published 2025)
# How the values were obtained:
# [1] = molecular target: T1, IL-17A(FLAG-Tagged): IL-17RA(His-Tagged) (Homo sapiens, UniProt Q16552, K93Q); assay: IL-17A(FLAG-Tagged): IL-17RA(His-Tagged) Binding Disruption Eu-HTRF Assay, Protocol 2; details: Protocol 2, FLAG tagged IL-17A 1 nM; simple average if tested more than once
# Source text: An antibody directed against the FLAG tag of IL-17A (SEQ ID NO: 1) is labeled with the HTRF donor chromophore (Europium-cryptate). IL-17A is present as a dimer that is “locked into” this quaternary structure due to the formation of loop-spanning […] disulfide bridges. The construct of IL-17RA used in the assay excludes the […] portion of the receptor and is fused to a C-terminal 10×His tag (SEQ ID NO:2). An antibody directed against the His tag of the IL-17RA chimera is labeled with the HTRF acceptor chromophore (“D2”). The fluorescence-resonance energy transfer (FRET) depends on the vicinity of the donor chromophore to the acceptor, and interruption of the binding between the IL-17A and IL-17RA causes the reduction/loss of FRET. Therefore, this assay allows to evaluate the compound effect on the binding IL-17A and IL-17RA by monitoring the fluorescence intensity of donor vs acceptor. The assay was run using either Protocol 1 or Protocol 2 as described below.
# Protocol 2. 40 nl of 2-fold serial diluted compound solution for total 22 dilution points is added into each well of a 1536-well, white, low-volume, non-binding plate (Greiner #782904), then 2 μl of FLAG tagged IL-17A at 2× final concentration (1 nM) in solution of PBS+0.01% Triton-X100 is added to each well. The assay plate is briefly centrifuged then incubated for 1 h at rt. A mixed solution is prepared containing 2×5 nM 10HIS×IL-17RA, 2×2.5 nM Eu-anti-FLAG (CISBIO), 2×5 nM D2-anti-HIS (CISBIO) in PBS+0.01% Triton-X100+200 mM Potassium Fluoride (Sigma 60238) and 2 μl of mix is added to each well of the assay plate. The plate is briefly centrifuged then incubated for 2 h at rt. The HTRF intensities at the wavelength of donor (615 nm) and acceptor (665 nm) are measured using BMG Pherastar. The ratio between intensities at two wavelengths is calculated and plotted against the compound concentration and the data is fitted to a one-site competition model to yield IC50 of the compound.
# [2] = molecular target: T1, IL-17A(FLAG-Tagged): IL-17RA(His-Tagged); assay: IL-17A(FLAG-Tagged): IL-17RA(His-Tagged) Binding Disruption Eu-HTRF Assay, Protocol 1; details: Protocol 1, FLAG tagged IL-17A 2.5 nM; simple average if tested more than once
# Procedure, shortened: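 IC50 came from a one-site competition fit of the acceptor/donor (665/620 nm) HTRF ratio. His-tagged IL-17RA, Eu-anti-FLAG and D2-anti-His were added after a 1 h rt compound preincubation with FLAG-tagged IL-17A dimer in PBS/0.01% Triton X-100, followed by 2 h at rt before reading.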
# [3] = system: IL-17A-induced G-CSF production in human normal keratinocyte (NHK); assay: NHK Assay: IL-17A-induced G-CSF production in human normal keratinocyte; type: cell-based; details: Homo sapiens, Keratinocyte, 24 h, IL-17A 5 ng/mL, simple average if tested more than once
# Procedure, shortened: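 Stimulus rhIL-17A 5 ng/mL final, premixed 1 h rt with compound; adult NHK, 5% FBS, 0.2% DMSO. Viability by CellTiter-Glo vs DMSO.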
# [4] = system: patients with moderate-to-severe HS; details: seven of nine patients with moderate-to-severe HS, open-label pilot-trial; cited from earlier work
# T1 sequence (Q16552 with tags, fused parts or gaps K93Q): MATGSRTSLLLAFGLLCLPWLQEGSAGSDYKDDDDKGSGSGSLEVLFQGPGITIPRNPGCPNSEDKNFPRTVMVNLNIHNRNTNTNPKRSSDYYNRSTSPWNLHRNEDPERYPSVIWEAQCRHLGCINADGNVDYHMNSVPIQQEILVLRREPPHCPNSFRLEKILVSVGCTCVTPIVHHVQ
IC50 [1] [nM],IC50 [2] [nM],Molecule,IC50 [3] [nM],patients achieved HiSCR [4] [%]
> 100,> 100,"CC(C)n1nccc1C(=O)NC(c1nc2nc([C@@H](C3CC3)N3CC(F)(F)CNC3=O)ccc2[nH]1)[C@@H](C)O[C@H](C)C(F)(F)F (single isomer, unassigned) [Example 75, N-((1R*,2R)-1-(5-((R)-Cyclopropyl(5,5-difluoro-2-oxotetrahydropyrimidin-1(2H)-yl)methyl)-1H-imidazo[4,5-b]pyridin-2-yl)-2-(((R)-1,1,1-trifluoropropan-2-yl)oxy)propyl)-1-isopropyl-1H-pyrazole-5-carboxamide]",< 50,
< 50,< 50,"CC(C)n1ncc(F)c1C(=O)N[C@@H](COC(C)(C)C(F)(F)F)c1nc2cc(CN3CC(C(F)(F)F)NC3=O)ccc2[nH]1 (single isomer, unassigned) [Example 32, 4-Fluoro-1-isopropyl-N—((R)-1-(5-(((S*)-2-oxo-4-(trifluoromethyl)imidazolidin-1-yl)methyl)-1H-benzo[d]imidazol-2-yl)-2-((1,1,1-trifluoro-2-methylpropan-2-yl)oxy)ethyl)-1H-pyrazole-5-carboxamide]",50 to 100,
,,secukinumab,,78
< 50,< 50,"[2H]C1([2H])[C@H](C(F)(F)F)NC(=O)N1[C@H](COC)c1ccc2[nH]c([C@H](COC(C)(C)C(F)(F)F)NC(=O)c3nonc3C)nc2c1 (relative stereo) [Example 54, N—((R*)-1-(5-((S)-2-methoxy-1-((R*)-2-oxo-4-(trifluoromethyl)imidazolidin-1-yl-5,5-d2)ethyl)-1H-benzo[d]imidazol-2-yl)-2-((1,1,1-trifluoro-2-methylpropan-2-yl)oxy)ethyl)-4-methyl-1,2,5-oxadiazole-3-carboxamide]",< 50,
